Laboratory results: patent publication US9527851B2, “Pyrrole six-membered heteroaryl ring derivative, preparation method thereof, and medicinal uses thereof” (Jiangsu Hengrui Medicine Co., Ltd., priority 2011, dated 2016)

Assays:
T cells = assay: Proliferation inhibition assay on T cells (PBMC, anti-CD3, IL-2, ATPlite); format: cell-based; details: Homo sapiens, T-cell; IL-2 10 ng/mL, 72 hours
Text: The following in vitro assay is to determine the activity of the compounds of the present invention for inhibiting the proliferation of T cells.
The activity is represented by the IC50 value.
The general procedures of the assay are given as follows: first, the PBMC cell line (purchased from Shanghai Blood Center) was centrifuged, the supernatant was removed, and the cells counted. […] Then, the cells were washed 3 times, resuspended, diluted to 2×10^6/mL, and then mixed with recombinant human IL-2 (purchased from Peprotech, Catalog Number: 200-02) to a concentration of 10 ng/mL, and cultured for another 3 days. The cells were washed again 3 times, and diluted to 5×10^5/mL. 80 μL of the cells were seeded in each well of a 96-well cell culture plate. […] To the control wells, 10 μL culture medium were added. The plate was placed in an incubator. After incubating for 1 hr, negative control wells were mixed with 10 μL of culture medium, and the rest of the wells were mixed with IL-2 to a concentration of 10 ng/mL, and incubated continuously for 72 hours. […] IC50 values were calculated from the data of inhibition rates at various concentrations of the test compounds.
(§1) The biological activity of the compounds of the present invention was tested by using the assay described above.

JAK1 kinase = JAK1 kinase (Homo sapiens (Human), UniProt P23458); assay: Assay for inhibiting JAK1 kinase (in vitro kinase assay, HRP anti-phosphotyrosine antibody/TMB absorbance); format: biochemical; details: 20 μM ATP, 50 minutes at room temperature; read-out: IC50 (JAK1/Bio)
Description: In vitro activity of compounds of the present invention for inhibiting JAK1 kinase was determined by the following method.
IC50 values of test compounds was calculated from the data of the test compounds in inhibiting the activity of JAK1 kinase at different concentrations.

[1] = tested on: human erythroid leukemia cell line TF-1; assay: Proliferation inhibition assay on human erythroid leukemia cell line TF-1 mediated by IL-4 (Cell Counting Kit-8); format: cell-based; details: Homo sapiens, TF-1 cells, 10 ng/mL IL-4, 72 hours
Text: The following in vitro assay is to determine the activity of the compounds of the present invention for inhibiting the proliferation of human erythroid leukemia cell line TF-1.
The activity is represented by the IC50 value, which can not only reflect the activity of a test compound for inhibiting JAK2 and JAK3 kinase, but can also reflect the selectivity of a test compound for JAK2 and JAK3 kinase.
The general procedures of the assay are given as follows: first, the TF-1 cells (purchased from ATCC, Catalog number: CRL 2003) were seeded in a 96-well cell culture plate at a suitable cell concentration (8000 cells/mL medium), and 10 ng/mL IL-4 (Invitrogen, Catalog Number: PHC0044) were added to each well. Then 10× serial concentration gradient of test compounds solutions (10000, 1000, 100, 10, 1 and 0.1 nM) were prepared, and then the 10× compound solutions prepared above were added to the 96-well cell culture plate containing IL-4. After the cell plates were cultured continuously for 72 hours, the activity of the test compounds for inhibiting the cell proliferation was determined by using a Cell Counting Kit-8 (purchased from Dojindo, Catalog Number: CK04). IC50 values were calculated from the data of the inhibition rates at various concentrations of the test compounds.
as §1

JAK2 kinase = JAK2 kinase (Homo sapiens (Human), UniProt O60674); assay: Assay for inhibiting JAK2 kinase (in vitro kinase assay, HRP anti-phosphotyrosine antibody/TMB absorbance); format: biochemical; details: 20 μM ATP, 50 minutes at room temperature; read-out: IC50 (JAK2/Bio)
Description: In vitro activity of compounds of the present invention for inhibiting JAK2 kinase was determined by the following method.

[2] = Pharmacokinetics assay in rats, intragastric administration, plasma by LC/MS/MS; format: in vivo, Sprague-Dawley (SD) rats; details: both sexes, Sprague-Dawley, rat, plasma, po, SD rats, 10 mg/kg
Outline: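 Fasted SD rats of both sexes dosed intragastrically at 10.0 mg/kg as a 1.0 mg/mL DMSO suspension; fed 2 h post-dose. Plasma sampled at various time points, protein-precipitated with methanol plus internal standard, and analyzed by LC-MS/MS.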

Sequence of JAK1 kinase (P23458 whole entry): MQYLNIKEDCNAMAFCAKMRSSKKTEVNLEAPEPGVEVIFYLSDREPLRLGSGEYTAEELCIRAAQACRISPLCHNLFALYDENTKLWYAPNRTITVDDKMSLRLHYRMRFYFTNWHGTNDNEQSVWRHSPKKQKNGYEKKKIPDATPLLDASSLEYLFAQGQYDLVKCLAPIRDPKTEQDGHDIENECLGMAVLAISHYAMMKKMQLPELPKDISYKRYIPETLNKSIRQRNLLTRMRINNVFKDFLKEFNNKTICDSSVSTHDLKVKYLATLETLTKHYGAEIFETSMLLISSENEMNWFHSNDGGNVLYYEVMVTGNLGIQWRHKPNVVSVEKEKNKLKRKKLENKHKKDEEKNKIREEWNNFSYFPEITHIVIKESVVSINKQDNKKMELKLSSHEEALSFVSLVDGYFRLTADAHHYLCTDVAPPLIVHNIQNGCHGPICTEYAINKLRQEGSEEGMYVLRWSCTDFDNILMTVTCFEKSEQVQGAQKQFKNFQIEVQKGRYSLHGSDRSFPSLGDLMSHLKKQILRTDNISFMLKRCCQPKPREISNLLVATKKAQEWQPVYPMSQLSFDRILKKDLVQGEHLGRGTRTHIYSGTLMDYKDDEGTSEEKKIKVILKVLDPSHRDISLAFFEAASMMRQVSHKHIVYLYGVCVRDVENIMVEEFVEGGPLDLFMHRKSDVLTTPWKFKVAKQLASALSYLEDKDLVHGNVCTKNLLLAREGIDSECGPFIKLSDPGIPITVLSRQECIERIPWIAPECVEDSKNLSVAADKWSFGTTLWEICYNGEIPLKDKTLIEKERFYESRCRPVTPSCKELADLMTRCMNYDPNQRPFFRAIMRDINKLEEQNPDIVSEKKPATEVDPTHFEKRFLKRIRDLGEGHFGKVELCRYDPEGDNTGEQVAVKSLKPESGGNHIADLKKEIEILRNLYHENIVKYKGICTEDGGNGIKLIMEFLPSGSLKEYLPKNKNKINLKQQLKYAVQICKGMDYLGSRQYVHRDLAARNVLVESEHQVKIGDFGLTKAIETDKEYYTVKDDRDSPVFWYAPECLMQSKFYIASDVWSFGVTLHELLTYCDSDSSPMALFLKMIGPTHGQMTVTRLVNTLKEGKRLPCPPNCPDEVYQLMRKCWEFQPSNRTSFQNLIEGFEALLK
Sequence of JAK2 kinase (O60674 whole entry): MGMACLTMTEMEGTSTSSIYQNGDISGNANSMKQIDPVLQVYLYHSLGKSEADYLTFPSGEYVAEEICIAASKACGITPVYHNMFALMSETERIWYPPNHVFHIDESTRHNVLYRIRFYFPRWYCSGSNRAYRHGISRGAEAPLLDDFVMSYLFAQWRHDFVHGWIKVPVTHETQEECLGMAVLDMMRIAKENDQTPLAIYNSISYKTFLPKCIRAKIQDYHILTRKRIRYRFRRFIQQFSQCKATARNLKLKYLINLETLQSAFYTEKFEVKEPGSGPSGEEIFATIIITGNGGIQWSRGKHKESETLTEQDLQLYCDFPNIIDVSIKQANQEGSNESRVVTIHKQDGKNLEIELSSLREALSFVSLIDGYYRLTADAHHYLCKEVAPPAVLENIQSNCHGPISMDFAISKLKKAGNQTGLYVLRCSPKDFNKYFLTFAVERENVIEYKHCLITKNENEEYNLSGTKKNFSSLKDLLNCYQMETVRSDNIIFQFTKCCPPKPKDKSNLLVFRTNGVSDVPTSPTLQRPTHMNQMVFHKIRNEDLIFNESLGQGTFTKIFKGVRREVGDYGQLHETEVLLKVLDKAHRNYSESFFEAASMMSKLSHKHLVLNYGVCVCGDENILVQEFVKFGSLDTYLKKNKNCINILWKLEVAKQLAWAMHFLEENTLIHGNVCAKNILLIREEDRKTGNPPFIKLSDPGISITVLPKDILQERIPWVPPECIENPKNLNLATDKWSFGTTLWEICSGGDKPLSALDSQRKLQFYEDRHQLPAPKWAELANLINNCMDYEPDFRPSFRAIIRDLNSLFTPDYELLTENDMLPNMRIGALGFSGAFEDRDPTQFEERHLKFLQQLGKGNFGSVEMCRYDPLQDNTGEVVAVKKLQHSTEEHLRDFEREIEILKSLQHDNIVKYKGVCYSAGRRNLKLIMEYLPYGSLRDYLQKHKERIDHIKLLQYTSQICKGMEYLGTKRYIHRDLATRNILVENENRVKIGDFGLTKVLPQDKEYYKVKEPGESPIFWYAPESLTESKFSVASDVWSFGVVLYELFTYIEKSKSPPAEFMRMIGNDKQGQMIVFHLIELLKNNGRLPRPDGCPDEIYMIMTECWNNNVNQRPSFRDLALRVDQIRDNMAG

Row | IC50 [1] [nM] | SMILES | IC50 (T cells) [nM] | IC50 (JAK1 kinase) [nM] | IC50 (JAK2 kinase) [nM] | Vd/F ([2]; read-out: Apparent Distribution Volume Vz/F) [L/kg] | AUC ([2]; read-out: Area Under Curve AUC) [ng·h/mL] | CL/F ([2]; read-out: Clearance CL/F) [mL/min/kg] | half-life ([2]; read-out: Half-Life t½ (converted)) [h] | Cmax ([2]; read-out: Plasma Conc. Cmax) [ng/mL] | IC50 ([1]; TF-1, 72 h) [nM]
1 |  | CN(c1ncnc2[nH]ccc12)[C@@H]1C[C@H]2CN(C(=O)CO)C[C@@]2(C)C1 (racemic) [Example 14, 2-hydroxy-1-((3aS,5R,6aR/3aS,5R,6aR)-3a-methyl-5-(methyl(7H-pyrrolo[2,3-d]pyrimidin-4-yl)amino)hexahydrocyclopenta[c]pyrrol-2(1H)-yl)ethanone] | 712 | 30 |  |  |  |  |  |  | 
2 | 152 | CN(c1ncnc2[nH]ccc12)[C@H]1C[C@@H]2CN(C(=O)[C@H](O)C(F)(F)F)C[C@@H]2C1 [Example 94, (S)-3,3,3-trifluoro-2-hydroxy-1-((3aR,5R,6aS)-5-(methyl(7H-pyrrolo[2,3-d]pyrimidin-4-yl)amino)hexahydrocyclopenta[c]pyrrol-2(1H)-yl)propan-1-one] | 127 |  |  |  |  |  |  |  | 
3 |  | CN(c1ncnc2[nH]ccc12)[C@@H]1CC2CNC(=O)CC2C1 (stereo partly drawn) [Example 148, (6S)-6-(methyl(7H-pyrrolo[2,3-d]pyrimidin-4-yl)amino)hexahydro-1H-cyclopenta[c]pyridin-3(2H)-one] |  |  | 23 | 6.99 ± 3.39 | 5230 ± 1170 | 33.2 ± 7.7 | 2.72 ± 1.82 | 1520 ± 317 | 399
